Reference: patent US5438060A, “Method of reducing elevated intraocular pressure” (priority 1994, dated 1995)
Counter-ions that a name gives are not always drawn. Like-named read-outs stand apart in the source and are kept apart here.

Tests used:
intraocular pressure = assay: Experiment 1: ocular hypotensive effect of eye drops in rabbits (applanation pneumatonograph); format: in vivo, Male Japanese White rabbits; conditions: for Difference in IOP between the control and test eyes: 50 μl
Procedure: The ocular hypotensive effect of the eye drops of this invention was investigated in rabbits. The same experiment was also conducted using a representative β-adrenergic blocking agent, and its ocular hypotensive effect was compared with that of eye drops of this invention. Methods: […] […] Male Japanese White rabbits (body weight: ca. 2 kg) with normal intraocular pressure were used in the experiment. […] For each solution, five rabbits were used. After anesthesia of the corneal surface by instillating 5 μl of 0.4%. oxybuprocaine hydrochloride, the intraocular pressure was measured using an applanation pneumatonograph (Alcon) before and after the instillation of the test solution and control solution. Measurement of intraocular pressure after the instillation was conducted with one-hour intervals until six hours post-instillation.

rabbit eyes = assay: Experiment 2: eye irritation test (modified Draize test); format: in vivo, Male Japanese White rabbits
[1] = mice, cited from earlier work
[2] = 0.5% eye drops, before instillation

## OCCN(CCO)c1nc(N2CCCCC2)c2nc(N(CCO)CCO)nc(N3CCCCC3)c2n1 [Compound (1), dipyridamole]
Intraocular pressure; 0.00005% (free base), 1 hr
  Difference in IOP between the control and test eyes: -0.60 mmHg
Intraocular pressure; 0.00005% (free base), 2 hr
  Difference in IOP between the control and test eyes: -0.50 mmHg
Intraocular pressure; 0.00005% (free base), 4 hr
  Difference in IOP between the control and test eyes: -0.20 mmHg
Intraocular pressure; 0.00005% (free base), 6 hr
  Difference in IOP between the control and test eyes: -0.10 mmHg
Intraocular pressure; 0.00005% eye drops
  time of maximal IOP reduction after instillation: one
Intraocular pressure; 0.0001% (free base), 1 hr
  Difference in IOP between the control and test eyes: -1.30 mmHg
Intraocular pressure; 0.0001% (free base), 2 hr
  Difference in IOP between the control and test eyes: -0.95 mmHg
Intraocular pressure; 0.0001% (free base), 4 hr
  Difference in IOP between the control and test eyes: -0.30 mmHg
Intraocular pressure; 0.0001% (free base), 6 hr
  Difference in IOP between the control and test eyes: -0.20 mmHg
Intraocular pressure; 0.0001% eye drops
  time of maximal IOP reduction after instillation: one
Intraocular pressure; 0.0005% eye drops
  ocular hypotensive effect remained unchanged after instillation: 2.0 h
Intraocular pressure; 0.001% (free base), 1 hr
  Difference in IOP between the control and test eyes: -2.00 mmHg
Intraocular pressure; 0.001% (free base), 2 hr
  Difference in IOP between the control and test eyes: -1.56 mmHg
Intraocular pressure; 0.001% (free base), 4 hr
  Difference in IOP between the control and test eyes: -1.00 mmHg
Intraocular pressure; 0.001% (free base), 6 hr
  Difference in IOP between the control and test eyes: -0.75 mmHg
Intraocular pressure; 0.001% eye drops
  time of maximal IOP reduction after instillation: one
Intraocular pressure; 0.01% (free base), 1 hr
  Difference in IOP between the control and test eyes: -3.44 mmHg
Intraocular pressure; 0.01% (free base), 2 hr
  Difference in IOP between the control and test eyes: -2.25 mmHg
Intraocular pressure; 0.01% (free base), 4 hr
  Difference in IOP between the control and test eyes: -1.31 mmHg
Intraocular pressure; 0.01% (free base), 6 hr
  Difference in IOP between the control and test eyes: -1.00 mmHg
Intraocular pressure; 0.01% eye drops
  ocular hypotensive effect remained unchanged after instillation: six
  time of maximal IOP reduction after instillation: one
Intraocular pressure; 0.1% (free base), 1 hr
  Difference in IOP between the control and test eyes: -4.50 mmHg
Intraocular pressure; 0.1% (free base), 2 hr
  Difference in IOP between the control and test eyes: -3.05 mmHg
Intraocular pressure; 0.1% (free base), 4 hr
  Difference in IOP between the control and test eyes: -2.40 mmHg
Intraocular pressure; 0.1% (free base), 6 hr
  Difference in IOP between the control and test eyes: -1.00 mmHg
Intraocular pressure; 0.1% eye drops
  average difference of the IOP from the control eye drops: 4.5 mmHg
  ocular hypotensive effect retained after instillation: six
  time of maximal IOP reduction after instillation: one
Intraocular pressure; 0.5% (free base), 1 hr
  Difference in IOP between the control and test eyes: -3.94 mmHg
Intraocular pressure; 0.5% (free base), 2 hr
  Difference in IOP between the control and test eyes: -4.40 mmHg
Intraocular pressure; 0.5% (free base), 4 hr
  Difference in IOP between the control and test eyes: -3.10 mmHg
Intraocular pressure; 0.5% (free base), 6 hr
  Difference in IOP between the control and test eyes: -1.60 mmHg
Intraocular pressure; 0.5% eye drops
  ocular hypotensive effect remained unchanged after instillation: six
  time of maximal IOP reduction after instillation: two
Rabbit eyes; 0.5% eye drops
  score for the tunica conjunctiva bulbi versus control solution: slightly higher than that for the control solution
Rabbit eyes; 0.5% eye drops, 0.5 hours
  Conjunctivae: Chemosis (average score): 0
  Conjunctivae: Condition of haw (average score): 0.6
  Conjunctivae: Discharge (average score): 0
  Conjunctivae: Redness of tunica conjunctivae bulbi (average score): 0.9
  Conjunctivae: Redness of tunica conjunctivae palpebrarum (average score): 1.5
  Cornea: Area of cornea involved (average score): 0
  Cornea: Opacity degree of density (average score): 0
  Iris: values (average score): 0.5
Rabbit eyes; 0.5% eye drops, 0.5 hours after instillation
  congestion in the iris: slight congestion
Rabbit eyes; 0.5% eye drops, 1 hour
  Conjunctivae: Chemosis (average score): 0
  Conjunctivae: Condition of haw (average score): 0.5
  Conjunctivae: Discharge (average score): 0
  Conjunctivae: Redness of tunica conjunctivae bulbi (average score): 1.1
  Conjunctivae: Redness of tunica conjunctivae palpebrarum (average score): 1.8
  Cornea: Area of cornea involved (average score): 0
  Cornea: Opacity degree of density (average score): 0
  Iris: values (average score): 1.0
Rabbit eyes; 0.5% eye drops, 2 hours
  Conjunctivae: Chemosis (average score): 0
  Conjunctivae: Condition of haw (average score): 0.5
  Conjunctivae: Discharge (average score): 0
  Conjunctivae: Redness of tunica conjunctivae bulbi (average score): 0.9
  Conjunctivae: Redness of tunica conjunctivae palpebrarum (average score): 1.8
  Cornea: Area of cornea involved (average score): 0
  Cornea: Opacity degree of density (average score): 0
  Iris: values (average score): 0.8
Rabbit eyes; 0.5% eye drops, 3 hours
  Conjunctivae: Chemosis (average score): 0
  Conjunctivae: Condition of haw (average score): 0.5
  Conjunctivae: Discharge (average score): 0
  Conjunctivae: Redness of tunica conjunctivae bulbi (average score): 0.5
  Conjunctivae: Redness of tunica conjunctivae palpebrarum (average score): 1.3
  Cornea: Area of cornea involved (average score): 0
  Cornea: Opacity degree of density (average score): 0
  Iris: values (average score): 0.5
Rabbit eyes; 0.5% eye drops, 6 hours
  Conjunctivae: Chemosis (average score): 0
  Conjunctivae: Condition of haw (average score): 0.5
  Conjunctivae: Discharge (average score): 0
  Conjunctivae: Redness of tunica conjunctivae bulbi (average score): 0.1
  Conjunctivae: Redness of tunica conjunctivae palpebrarum (average score): 0.8
  Cornea: Area of cornea involved (average score): 0
  Cornea: Opacity degree of density (average score): 0
  Iris: values (average score): 0
Rabbit eyes; 0.5% eye drops, after 6 hours
  congestion in the iris: disappeared
Rabbit eyes; [2]
  Conjunctivae: Chemosis (average score): 0
  Conjunctivae: Condition of haw (average score): 0.4
  Conjunctivae: Discharge (average score): 0
  Conjunctivae: Redness of tunica conjunctivae bulbi (average score): 0.1
  Conjunctivae: Redness of tunica conjunctivae palpebrarum (average score): 0.8
  Cornea: Area of cornea involved (average score): 0
  Cornea: Opacity degree of density (average score): 0
  Iris: values (average score): 0
Rabbit eyes; 0.5% eye drops, irrespective of time
  other irritation items, test solution versus control solution: no difference
Rabbit eyes; eye drops of the present invention
  irritation to rabbit eyes (overall): negligible irritation
[1]; intravenous injection
  LD50: 150 mg/kg
[1]; subcutaneous administration
  LD50: 2700 mg/kg

## CC(C)(C)NC[C@H](O)COc1nsnc1N1CCOCC1 [Timolol maleate, timolol maleate]
Intraocular pressure; 0.5% (free base), 1 hr
  Difference in IOP between the control and test eyes: -0.80 mmHg
Intraocular pressure; 0.5% (free base), 2 hr
  Difference in IOP between the control and test eyes: -0.80 mmHg
Intraocular pressure; 0.5% (free base), 4 hr
  Difference in IOP between the control and test eyes: -0.25 mmHg
Intraocular pressure; 0.5% (free base), 6 hr
  Difference in IOP between the control and test eyes: -0.10 mmHg
Intraocular pressure; 0.5% eye drops, one hour after instillation
  IOP reduction: 0.8 mmHg
Intraocular pressure; 0.5% eye drops, two hours after instillation
  IOP reduction: 0.8 mmHg
Intraocular pressure; 0.5% timolol eye drops
  degree of the IOP reduction compared with the 0.0001% eye drops of the invention: significantly less
